Patent US20140378408A1, “NUCLEOSIDE 5'-PHOSPHOROTHIOATE ANALOGUES AND USES THEREOF” (BAR-ILAN UNIVERSITY, an Israeli University, priority 2012, published 2014)
“Also recorded” adds a separate entry of the source.

Key:
[1] = IV administration to mice, detection in blood by HPLC; assay type: in vivo
Aβ40-Cu^2+ aggregates = biological target: T1, Aβ40-Cu^2+ aggregates (Homo sapiens, UniProt P05067); assay: TEM, size reduction of Aβ40-Cu^2+ aggregates; conditions: 6 eq, 7 h; aggregates 2.5 μm before
T1 construct: purchased GL-Biochem (Shanghai)
Description: TEM sample was prepared from 200 μM Aβ-M^2+ 1:1 solution (pH 7.4 or 6.6 for Aβ40-Zn^2+ or Aβ40-Cu^2+, respectively) incubated in a rotary shaker for 9 days at RT. A cloudy mixture with massive sediments was obtained. TEM samples were prepared by diluting the stock solutions with PBS to a concentration of 25 μM with or without APCPP-γ-S. In this way four samples were obtained: (i) 25 μM Aβ40-Cu^2+; (ii) 25 μM Aβ40-Cu^2+ containing 150 μM APCPP-γ-S; (iii) 25 μM Aβ40-Zn^2+; and (iv) 25 μM Aβ40-Zn^2+ containing 150 μm APCPP-γ-S. The mixtures were incubated in a rotary shaker for 7 h and after vortexing, a sample was transferred to a gold grid, for Aβ40-Cu^2+, or a copper grid for Aβ40-Zn^2+. The wet grid was left to dry at RT overnight.
To validate the DLS data indicating the efficiency of APCPP-γ-S, we monitored the dissolution of Aβ40-M^2+ aggregates in the presence of APCPP-γ-S by TEM. Aβ40-Cu^2+ and Aβ40-Zn^2+ 1:1 complexes were incubated for 9 days at RT, resulting in a significant sediment. Aβ40-Cu^2+ aggregates of 2.5 μm in diameter (FIG. 6A) and Aβ40-Zn^2+ aggregates of different sizes from 100 nm to 2.5 μm (FIG. 6C) were observed by TEM measurements. APCPP-γ-S (6 eq) was then added and the mixture was incubated for 7 h.

[2] = Stability in human blood serum; assay type: in vitro ADME
Aβ40-Cu^+ complex = biological target: T2, Aβ40-Cu^+ complex (Homo sapiens, UniProt P05067); assay: Re-solubilization of Aβ40-Cu^+ aggregates monitored by 1H-NMR; conditions: 6 eq, pD 7.8
T2 construct: purchased GL-Biochem (Shanghai)
Description: ^1H-NMR spectrum of 0.25 mM Aβ40 (concentration determined by UV) in 10 mM TRIS-d11 (500 μl, pD 11) was measured at 278 K. The pD was adjusted to 7.8 by the addition of 0.1 N DCl (33 μl), and ^1H-NMR spectrum was measured (700 MHz, 80 scans), as well as after each of the following additions: (A) 8.3 mM Cu^+ (15 μl, 1 eq); (B) 6 mM compound 7 (21 μl, 1 eq); (C) 6 mM compound 7 (42 μL, 3 eq); (D) of 6 mM APCPP-γ-S (62.4 μl, 6 eq); (E) of 6 mM APCPP-γ-S (62.4 μl, 9 eq). At the end of the titration, the acetonitrile concentration was 2% (v/v) in 735.8 μl, pD 8.4.
APCPP-γ-S, the most promising chelator identified here, was used also to resolubilize Aβ40-Cu^+ aggregates. This process was monitored by ^1H-NMR similar to that described above for Aβ28. First, the ^1H-NMR spectrum of 0.25 mM Aβ40 monomer at 278 K, pD 11, was measured (FIG. 7a), after adjustment of Aβ40 solution pD to 7.8 the signals shifted and broadened (FIG. 7b). Upon addition of 1 eq 8.3 mM Cu(CH3CN)4PF6 the signals dramatically further broadened (FIG. 7c).

[3] = Pharmacokinetics and BBB permeation after IV injection in mice; assay type: in vivo, F1 (C57B×S29) mice
Description: As shown in Example 14, APCPP-γ-S is stable in human blood serum as well as in brain, liver and blood from mice. In this study, we evaluated APCPP-γ-S blood-brain barrier (BBB) permeability and pharmacokinetics in F1 (C57B×S29) mice. APCPP-γ-S was injected intravenously (IV) at 40 mg/Kg into four mice (each mouse was injected with 1.5 mg of APCPP-γ-S). The mice were sacrificed after 30 minutes (2 of the 4) or 90 minutes (thr other 2 of the 4), and samples from brain and blood were taken to analysis. Each sample was collected into 0.5 ml saline, sonicated and extracted with chloroform, applied onto an anion exchange cartridge, and freeze-dried. The resulting residue was analyzed by HPLC. We detected the presence of 67.5 and 64% of the injected amount of APCPP-γ-S in the blood samples after 30 and 90 minutes, respectively. In the brain sample we obtained ca. 2% permeability (data not shown).

[4] = Metabolic stability in mouse brain, liver and blood homogenates (HPLC); assay type: in vitro ADME, mice; conditions: 37° C., up to 180 min
Description: In order to use APCPP-γ-S as a neuroprotectant agent and test its activity in an animal model, we first evaluated the metabolic stability of APCPP-γ-S in several tissues such as liver, brain and blood. In this assay we took samples from mice brain, liver and blood. The tissue samples were homogenated by sonication and split to 0.5 ml aliquots. Each sample was mixed with 0.1 mg of APCPP-γ-S and incubated at 37° C. for 10, 30, 90 and 180 min. After incubation, the samples were collected and extracted with chloroform at 1:1 v/v ratio. The aqueous layer was removed and freeze-dried. Samples were loaded onto an activated Starta X-AW weak anion exchange cartridge, washed with H2O (1 ml) and eluted with MeOH:H2O (1:1, 1 ml) followed by NH4OH:MeOH:H2O (2:25:73, 1 ml), and then freeze-dried. The resulting residue was analyzed by HPLC. […] Each analysis cycle was set to 30 minutes. The chromatographic flow was monitored at 260 nm and integrated using EZChrom Elite Software.

human chondrocyte cells = assay: NTMP hydrolysis in human chondrocyte cells; assay type: cell-based; conditions: 0.1 mM, NTMP 0.1 mM, OD 405 nm
Description: Increased chondrocyte PPi production, and PPi-generating NPP1 activity are linked with CPPD crystal deposition disease, common in aging and osteoarthritic cartilage. […] Its hydrolysis by endogenous enzyme (NPP1) from matrix vesicles (MVs), human chondrocytes or cartilage pieces results in elevated OD at 405 nm.
In order to test the ability of the NPP1 inhibitor to inhibit NTMP hydrolysis in human chondrocyte cells, human chondrocytes 1.5×10^4 per well were seeded in 96 well plate in 100 μl DMEM/10% fetal calf serum (FCS). One day before the experiment, the medium was changed to DMEM only (w/o phenol red). Human chondrocytes were incubated with 0.1 mM NTMP in TES, pH 7.37, in the presence or absence of 0.1 mM of the NPP1 inhibitor for 0, 15′, 30′, 1, 2, 4, 6, 18 hours at 37° C. At each time point the reaction was read at 405 nm.

T2 sequence (P05067 672-711, one chain of several): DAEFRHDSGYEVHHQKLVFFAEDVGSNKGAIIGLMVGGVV
T1 sequence (P05067 672-711): as the sequence (P05067 672-711, one chain of several) above

Compound: Nc1ncnc2c1ncn2[C@@H]1O[C@H](COP(O)(=S)OP(=O)(O)C(Cl)(Cl)P(=O)(O)O)[C@@H](O)[C@H]1O (single isomer, unassigned) [APPCCl2P-α-S, adenosine 5′-[Pα-thio]-β,γ-(dichloromethylene)triphosphate]
- detection in blood after IV administration [1]: could be detected in blood (by HPLC) even after 3 h

Compound: Nc1ncnc2c1ncn2[C@@H]1O[C@H](COP(=O)(O)CP(=O)(O)OP(O)(O)=S)[C@@H](O)[C@H]1O [APCPP-γ-S, adenosine 5′-[Pγ-thio]-α,β-methylenetriphosphate]
- aggregate size after addition (Aβ40-Cu^2+ aggregates): less than 250 nm
- stability in human blood serum [2]: stable
- effect on Aβ40-Cu^+ 1H-NMR spectrum (Aβ40-Cu^+ complex): all signals reappeared
- injected amount present in blood ([3]; IV 40 mg/Kg, after 30 minutes): 67.5%
- permeability into brain ([3]; IV 40 mg/Kg, brain sample): ca. 2%
- injected amount present in blood ([3]; IV, after 90 minutes): 64%
- metabolic stability in brain, liver and blood [4]: no significant degradation after 3 h; also recorded: could be detected even after 180 min

Compound: Nc1ncnc2c1ncn2[C@@H]1O[C@H](COP(O)(=S)OP(=O)(O)C(Cl)(Cl)P(=O)(O)O)[C@@H](O)[C@H]1O (single isomer, unassigned; isomer a) [APPCCl2P-α-S (isomer A), adenosine 5′-[Pα-thio]-β,γ-(dichloromethylene)triphosphate]
- inhibition of NTMP hydrolysis in human chondrocyte cells (human chondrocyte cells): inhibit the hydrolysis of NTMP
